In article PMC8725909, “1,3,4-Oxadiazole-naphthalene hybrids as potential VEGFR-2 inhibitors: design, synthesis, antiproliferative activity, apoptotic effect, and in silico studies” (Journal of Enzyme Inhibition and Medicinal Chemistry, 2021):
Several values for one entry are separate records, joined by “and”; a condition that tells them apart may be missing. Identical values can stand only once. Like-named read-outs stand apart in the source and are kept apart here.

Legend:
[1] = tested on: MCF-7 (human breast cancer cell line); test: MTT cytotoxicity assay, MCF-7; format: cell-based
Procedure: (§1) MTT assay was used to assess the cytotoxic activities of the synthesised compounds against MCF-7 (human breast cancer cell line) and HepG2 (human hepatocellular carcinoma cell line).
(§2) The MCF-7, HepG2, and THLE-2 cell lines were purchased from the American Type Culture Collection (ATCC, Rockville, MD, USA). MCF-7 and HepG2 cells were grown in a medium that contains Roswell Park Memorial Institute (RPMI) 1640 with L-glutamine, 10% foetal bovine serum (FBS), streptomycin (100 μg/ml) and penicillin (100 U/ml). While THLE-2 cells were cultivated in Bronchial Epithelial Growth Media (BEGM) with 10% FBS, 5 ng/ml EGF, and 70 ng/ml phosphoethanolamine. All cells were maintained in a humidified incubator and 5% (v/v) CO2 atmosphere at 37 °C[60].
(§3) The MCF-7, HepG2, and THLE-2 cells were tested for cytotoxicity using the 3–(4, 5-dimethylthiazol-2-yl)-2,5-diphenyltetrazolium bromide (MTT) assay. The ability of living cells to reduce the yellow product MTT to a blue product, formazan, via a reduction reaction that occurs in the mitochondria is used to assess cell population growth. In this assay, 5000 cells/well were plated in a 96-well plate and allowed to grow for 24 h before being treated with over-mentioned suitable media containing increased concentrations of tested compounds (0, 0.1, 1, 10, 100, and 1000 µM). Each experiment was conducted in triplicate. After removing the media, 100 µL of MTT was added to each well and incubated for 4 h. Following that, 100 µL of dimethyl sulfoxide (DMSO) solution was added to solubilise the resulting formazan product, and absorbance at 570 nm was measured using an ELISA microplate reader (Epoc-2 C micro-plate reader, Bio Tek, VT, USA). The IC50 values [the concentration required to inhibit cell viability by 50%] were calculated.

[2] = tested on: HepG2 (human hepatocellular carcinoma cell line); test: MTT cytotoxicity assay, HepG2; format: cell-based
Procedure: as §1, §2, §3

[3] = tested on: normal adult liver epithelial cells (THLE-2 cells); test: MTT cytotoxicity against normal cells; format: cell-based; settings: Homo sapiens
Procedure: as §2, §3

VEGFR-2 = VEGFR-2 level in HepG2 cells by ELISA; format: cell-based, human; settings: VEGFR-2 concentration in HepG2 cells after treatment; control 1773 ± 15.01; mean ± SEM of three experiments
Procedure: In vitro VEGFR-2 concentration was evaluated using Enzyme-Linked Immunosorbent Assay (ELISA) kit (Cat. NO. EK0544) (AVIVA System Biology, USA) according to manufacturer instructions.

HepG2 cells [4] = test: Cell cycle analysis by flow cytometry (propidium iodide); format: cell-based, human; settings: HepG2, 8.8 µM, 48 h
Procedure: As a control, HepG2 cells were not treated with compound 5.
The effect of compound 5 on the cell cycle phases was investigated using propidium iodide staining and flow cytometric analysis according to the cell cycle kit (PN C03551). Briefly, HepG2 cells were allowed to grow in […], then treated with compound 5 for 48 h. After that, the cells were harvested and cell fixation was performed, cells were centrifuged at 2000 rpm for 5 min then, the supernatant was aspirated. The pellet of fixed cells was resuspended in a 0.5 ml cell cycle kit, vortexed, and incubated at 25 °C for 15 min. Finally, DNA was stained with 50 µg/ml propidium iodide for 30 min. Flow cytometric analysis of cell cycle performed on a COULTER® EPICS® XL™ Flow Cytometer (USA)[67–70].

HepG2 cells [5] = test: Annexin-V/propidium iodide apoptosis assay; format: cell-based, human; settings: HepG2, 8.8 µM, 48 h, mean ± SEM of three experiments
Procedure: The apoptosis induced by compound 5 was quantified using an Annexin-V/propidium iodide (PI) staining assay. Compound 5 was applied to HepG2 cells at a concentration of 8.8 µM.
To assess the effect of compound 5 on cell apoptosis, Annexin V–FITC Kit was used according to the kit protocol (PN IM3546), followed by flow cytometric analysis. In brief, HepG2 cells were allowed to grow in […], after that treated for 48 h. then, washed in phosphate-buffered saline and suspended to 5 × 10^5–5 × 10^6 cells/mL in 1X binding buffer. Then we added to 100 µL of the cell suspensions, 5 µL of dissolved PI, and 1 µL of annexin VFITC solution and incubated in the dark for 15 min. Next to that, we added 400 µL of ice-cold 1X binding buffer and mixed gently. Apoptotic cells were determined by flow cytometric analysis on a COULTER® EPICS® XL™ Flow Cytometer (USA)[67]^,[71]^,[72].

caspase-3 = test: Caspase-3 determination by ELISA; format: cell-based, human; settings: HepG2, 8.8 µM, 24 h
Procedure: To test the effect of the synthesised compounds on caspase-3 levels, the most promising member 5, at a concentration of 8.8 µM, was applied to the most sensitive cells (HepG2) for 24 h.
The effect of compound 5 on the Caspase-3 level was assessed using an ELISA kit (Catalog # KHO1091) according to manufacturer instructions.

[6] = design: method as in PMID 25895472; settings: cited from earlier work
[7] = design: method as in PMID 33707933; settings: 200 mg once daily, patients with advanced solid tumours; cited from earlier work
[8] = MCF7, MTT assay, mean ± SEM of at least three experiments, read-out: IC50 MCF-7
[9] = HepG2, MTT assay, mean ± SEM of at least three experiments, read-out: IC50 HepG2
[10] = THLE-2, normal liver epithelial cells, MTT, mean ± SEM of at least three experiments, read-out: THLE-2 IC50

Row | Compound | IC50 [1, 8] [µM] | IC50 [2, 9] [µM] | VEGFR-2 (pg/ml) HepG2 (VEGFR-2) | IC50 ([1]; MCF7, read-out: IC50 MCF-7) [µM] | IC50 ([2]; HepG2, read-out: IC50 HepG2) [µM] | other results
1 | COc1ccc2cc(C(C)c3nnc(SCC(=O)NCc4ccccc4)o3)ccc2c1 (stereo not drawn) [Compound 5, N-Benzyl-2-{[5-(1-(6-methoxynaphthalen-2-yl)ethyl)-1,3,4-oxadiazol-2-yl]thio}acetamide] | 9.7 ± 0.75 | 8.8 ± 0.69 | 610.4 pg/mL and 610.4 ± 3.46 pg/mL |  |  | IC50 [3, 10]: 33.7 ± 1.35 µM; percentage of cells in Pre-G1 phase (HepG2 cells [4]; control 1.76%): 34.12%; percentage of cells in S phase (HepG2 cells [4]; control 27.59%): 42.05%; percentage of cells in G0/G1 phase (HepG2 cells [4]; control 51.31%): 43.91%; Apoptosis (%) (HepG2 cells [5]; control 0.51 ± 0.03): 22.86% and 22.86 ± 1.28 %; Necrosis (%) (HepG2 cells [5]; control 1.25 ± 0.08): 11.26 ± 0.77 %; increase in the level of caspase-3 compared to control cells (caspase-3): 5.61 fold
2 | COc1ccc2cc(C(C)c3nnc(SCC(=O)Nc4ccccc4)o3)ccc2c1 (stereo not drawn) [Compound 6, 2-{[5-(1-(6-Methoxynaphthalen-2-yl)ethyl)-1,3,4-oxadiazol-2-yl]thio}-N-phenylacetamide] | 13.2 ± 1.12 | 12.3 ± 0.87 |  |  |  | 
3 | COc1ccc2cc(C(C)c3nnc(SCC(=O)Nc4ccccc4C)o3)ccc2c1 (stereo not drawn) [Compound 7, 2-{[5-(1-(6-Methoxynaphthalen-2-yl)ethyl)-1,3,4-oxadiazol-2-yl]thio}-N-(o-tolyl)acetamide] | 13.6 ± 1.09 | 12.5 ± 1.09 |  |  |  | 
4 | COc1ccc2cc([C@H](C)c3nnc(SCC(=O)Nc4cccc(C)c4)o3)ccc2c1 [Compound 8, 2-{[5-(1-(6-Methoxynaphthalen-2-yl)ethyl)-1,3,4-oxadiazol-2-yl]thio}-N-(m-tolyl) acetamide] | 10.4 ± 0.92 | 9.5 ± 0.87 | 583.7 pg/mL and 583.7 ± 1.93 pg/mL |  |  | IC50 [3, 10]: 16.7 ± 0.73 µM
5 | COc1ccc2cc(C(C)c3nnc(SCC(=O)Nc4ccc(C)cc4)o3)ccc2c1 (stereo not drawn) [Compound 9, 2-{[5-(1-(6-Methoxynaphthalen-2-yl)ethyl)-1,3,4-oxadiazol-2-yl]thio}-N-(p-tolyl)acetamide] |  |  |  | 83.5 ± 7.79 | 83.7 ± 6.52 | 
6 | COc1ccc2cc(C(C)c3nnc(SCC(=O)Nc4c(C)cccc4C)o3)ccc2c1 (stereo not drawn) [Compound 10, N-(2,6-Dimethylphenyl)-2-{[5-(1-(6-methoxynaphthalen-2-yl)ethyl)-1,3,4-oxadiazol-2-yl]thio}acetamide] | 12.5 ± 0.74 | 11.8 ± 1.04 |  |  |  | 
7 | COc1cccc(NC(=O)CSc2nnc(C(C)c3ccc4cc(OC)ccc4c3)o2)c1 (stereo not drawn) [Compound 11, 2-{[5-(1-(6-Methoxynaphthalen-2-yl)ethyl)-1,3,4-oxadiazol-2-yl]thio}-N-(3-methoxyphenyl)acetamide] | 11.4 ± 0.81 | 10.7 ± 0.58 |  |  |  | 
8 | COc1ccc2cc(C(C)c3nnc(SCC(=O)NC4CCCCC4)o3)ccc2c1 (stereo not drawn) [Compound 12, N-Cyclohexyl-2-{[5-(1-(6-methoxynaphthalen-2-yl)ethyl)-1,3,4-oxadiazol-2-yl]thio}acetamide] |  |  |  | 25.5 ± 2.02 | 24.6 ± 2.81 | 
9 | COc1ccc2cc(C(C)c3nnc(SCC(=O)Nc4ccc(Cl)cc4)o3)ccc2c1 (stereo not drawn) [Compound 13, N-(4-Chlorophenyl)-2-{[5-(1-(6-methoxynaphthalen-2-yl)ethyl)-1,3,4-oxadiazol-2-yl]thio}acetamide] |  |  |  | 11.4 ± 0.99 | 10.5 ± 0.93 | 
10 | COc1ccc2cc(C(C)c3nnc(SCC(=O)Nc4ccc(Cl)cc4Cl)o3)ccc2c1 (stereo not drawn) [Compound 14, N-(2,4-Dichlorophenyl)-2-{[5-(1-(6-methoxynaphthalen-2-yl)ethyl)-1,3,4-oxadiazol-2-yl]thio}acetamide] |  |  |  | 11.2 ± 0.69 | 10.4 ± 0.81 | 
11 | COc1ccc2cc(C(C)c3nnc(SCC(=O)Nc4c(Cl)cccc4Cl)o3)ccc2c1 (stereo not drawn) [Compound 15, N-(2,6-Dichlorophenyl)-2-{[5-(1-(6-methoxynaphthalen-2-yl)ethyl)-1,3,4-oxadiazol-2-yl]thio}acetamide] | 9.8 ± 0.46 | 8.4 ± 0.72 | 864.5 pg/mL and 864.5 ± 5.92 pg/mL |  |  | IC50 [3, 10]: 34.9 ± 1.86 µM
12 | COc1ccc2cc([C@H](C)c3nnc(SCC(=O)Nc4ccccc4[N+](=O)[O-])o3)ccc2c1 [Compound 16, 2-{[5-(1-(6-Methoxynaphthalen-2-yl)ethyl)-1,3,4-oxadiazol-2-yl]thio}-N-(2-nitrophenyl) acetamide] |  |  | 834.9 pg/mL and 834.9 ± 5.17 pg/mL | 9.8 ± 0.8 | 8.7 ± 0.72 | IC50 ([3]; THLE-2, read-out: THLE-2 IC50): 29.7 ± 2.23 µM
13 | COc1ccc2cc([C@H](C)c3nnc(SCC(=O)Nc4ccc([N+](=O)[O-])cc4)o3)ccc2c1 [Compound 17, 2-{[5-(1-(6-Methoxynaphthalen-2-yl)ethyl)-1,3,4-oxadiazol-2-yl]thio}-N-(4-nitrophenyl) acetamide] |  |  | 1067 pg/mL and 1067 ± 4.91 pg/mL | 10.4 ± 0.82 | 9.2 ± 0.76 | IC50 ([3]; THLE-2, read-out: THLE-2 IC50): 22.8 ± 1.22 µM
14 | COc1ccc2cc(C(C)c3nnc(SCC(=O)Nc4ccc([N+](=O)[O-])cc4O)o3)ccc2c1 (stereo not drawn) [Compound 18, N-(2-Hydroxy-4-nitrophenyl)-2-{[5-(1-(6-methoxynaphthalen-2-yl)ethyl)-1,3,4-oxadiazol-2-yl]thio}acetamide] | 9.4 ± 0.64 | 8.7 ± 0.75 | 1004 pg/mL and 1004 ± 5.49 pg/mL |  |  | IC50 [3, 10]: 28.6 ± 2.1 µM
15 | CNC(=O)c1cc(Oc2ccc(NC(=O)Nc3ccc(Cl)c(C(F)(F)F)c3)cc2)ccn1 [Sorafenib, reference compound] | 10.8 ± 1.01 | 10.2 ± 0.97 |  |  |  | IC50 [3, 10]: 27.8 ± 1.74 µM
16 | COc1cc2nccc(Oc3ccc(NC(=O)Nc4cc(C)on4)c(Cl)c3)c2cc1OC [Tivozanib] |  |  |  |  |  | half-life [6]: 96 h
17 | Cc1[nH]c(/C=C2\C(=O)Nc3ccc(F)cc32)c(C)c1C(=O)N[C@H]1CCN(C(=O)N(C)C)C1 [Vorolanib] |  |  |  |  |  | safety profile [7]: acceptable safety profile
